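Protocol summary: plate cells (96-well), add compound at 5 concentrations, incubate 48 h, interpolate endpoints linearly. Here, GI50 denotes the concentration required for 50% inhibition of growth.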 Active and inactive are the calls of the source. No stated cut-off is given here; in the data, active = GI50 up to about 1.1 µM and inactive = higher.
Legend:
Assay in all cases: NCI-60 cell line screen, 48 h
A498 = system: A498
HT-29 = system: HT-29
NCI-H460 = system: NCI-H460
PC-3 = system: PC-3
IGROV-1 = system: IGROV-1
RPMI-8226 = system: RPMI-8226
MDA-N = system: MDA-N
LOX IMVI = system: LOX IMVI
UACC-257 = system: UACC-257
COLO 205 = system: COLO 205
HCC 2998 = system: HCC 2998
SK-MEL-2 = system: SK-MEL-2
786-0 = system: 786-0
NCI-H226 = system: NCI-H226
T47D = system: T47D
SNB-75 = system: SNB-75
SR = system: SR
M14 = system: M14
CCRF-CEM = system: CCRF-CEM
SF-539 = system: SF-539

Row | SMILES | GI50 (A498) | GI50 (HT-29) | GI50 (NCI-H460) | GI50 (PC-3) | GI50 (IGROV-1) | GI50 (RPMI-8226) | GI50 (MDA-N) | GI50 (LOX IMVI) | GI50 (UACC-257) | GI50 (COLO 205) | GI50 (HCC 2998) | GI50 (SK-MEL-2) | GI50 (786-0) | GI50 (NCI-H226) | GI50 (T47D) | GI50 (SNB-75) | GI50 (SR) | GI50 (M14) | GI50 (CCRF-CEM) | GI50 (SF-539)
1 | COc1ccc2c(c1)CCc1c-2[nH]c2ccc(OC)cc12 | > 100 µM (inactive) | 7.21 µM (inactive) | > 100 µM (inactive) | > 100 µM (inactive) | > 100 µM (inactive) | > 100 µM (inactive) | > 100 µM (inactive) | > 100 µM (inactive) | > 100 µM (inactive) | > 100 µM (inactive) | > 100 µM (inactive) | > 100 µM (inactive) | > 100 µM (inactive) | 36.4 µM (inactive) | 20.8 µM (inactive) | > 100 µM (inactive) | > 100 µM (inactive) | > 100 µM (inactive) | 14.4 µM (inactive) | 
2 | CC1=NN2C(=N)/C(=C/c3ccco3)C(=O)N=C2S1 | > 100 µM (inactive) | > 100 µM (inactive) | > 100 µM (inactive) | > 100 µM (inactive) | > 100 µM (inactive) | > 100 µM (inactive) | > 100 µM (inactive) | > 100 µM (inactive) | > 100 µM (inactive) | > 100 µM (inactive) | > 100 µM (inactive) | > 100 µM (inactive) | > 100 µM (inactive) | > 100 µM (inactive) | > 100 µM (inactive) | > 100 µM (inactive) | 50.4 µM (inactive) | > 100 µM (inactive) | > 100 µM (inactive) | > 100 µM (inactive)
3 | O=C(NN1C(=O)/C(=C/c2ccc(Cl)cc2)N=C1c1ccccc1)c1c(Cl)c(Cl)c(Cl)c(Cl)c1-c1nc2ccccc2[nH]1 | 12.9 µM (inactive) | 27.4 µM (inactive) | < 0.01 µM (active) | 20.2 µM (inactive) | 2.47 µM (inactive) |  | 3.84 µM (inactive) | 8.79 µM (inactive) |  | 22.6 µM (inactive) | 8.09 µM (inactive) | 18.6 µM (inactive) | 18.5 µM (inactive) | 8 µM (inactive) | 0.582 µM (active) | 12.2 µM (inactive) | 3.58 µM (inactive) | 17.3 µM (inactive) | 12.1 µM (inactive) | 23.8 µM (inactive)
4 | COc1cc(/C=C2\C(=O)N(c3cccc([N+](=O)[O-])c3)C(c3ccccc3)S2(=O)=O)cc(OC)c1OC (centres undefined) | > 100 µM (inactive) | > 100 µM (inactive) | > 100 µM (inactive) | > 100 µM (inactive) | > 100 µM (inactive) | 64.9 µM (inactive) | 31.1 µM (inactive) | > 100 µM (inactive) | > 100 µM (inactive) | > 100 µM (inactive) | > 100 µM (inactive) | > 100 µM (inactive) | > 100 µM (inactive) | > 100 µM (inactive) | 63.7 µM (inactive) | > 100 µM (inactive) | 37.2 µM (inactive) | > 100 µM (inactive) | 62.2 µM (inactive) | 
5 | COc1cc(CC(C)N)ccc1O (centres undefined) | > 100 µM (inactive) | > 100 µM (inactive) | > 100 µM (inactive) | > 100 µM (inactive) | > 100 µM (inactive) | > 100 µM (inactive) | > 100 µM (inactive) | > 100 µM (inactive) | > 100 µM (inactive) | > 100 µM (inactive) | > 100 µM (inactive) | > 100 µM (inactive) | > 100 µM (inactive) | > 100 µM (inactive) | > 100 µM (inactive) | > 100 µM (inactive) | > 100 µM (inactive) | > 100 µM (inactive) | > 31.6 µM (inactive) | > 100 µM (inactive)
6 | Cc1ccc(NC(=O)CCc2nnc3s/c(=C\C=C\c4ccccc4)c(=O)n23)cc1 | > 94.4 µM (inactive) | > 100 µM (inactive) | > 83.6 µM (inactive) | > 100 µM (inactive) | > 100 µM (inactive) | 46.9 µM (inactive) | > 79.1 µM (inactive) | 27 µM (inactive) | > 95.7 µM (inactive) | > 100 µM (inactive) | > 100 µM (inactive) | 68.7 µM (inactive) | > 100 µM (inactive) | > 100 µM (inactive) | > 31.6 µM (inactive) | > 83.2 µM (inactive) | 7.29 µM (inactive) | > 100 µM (inactive) | 27.8 µM (inactive) | 55.3 µM (inactive)
7 | C/C(=N\O)C1CC2C=C(C#N)C1N(Cc1ccccc1)C2 (centres undefined) | > 100 µM (inactive) | > 100 µM (inactive) | 74.5 µM (inactive) | > 100 µM (inactive) |  | > 100 µM (inactive) | > 100 µM (inactive) | > 100 µM (inactive) | > 100 µM (inactive) | > 100 µM (inactive) | 80.5 µM (inactive) |  | > 100 µM (inactive) | > 100 µM (inactive) | > 100 µM (inactive) | > 100 µM (inactive) | > 100 µM (inactive) | > 100 µM (inactive) | > 100 µM (inactive) | > 100 µM (inactive)
8 | Cc1ccc2nc(-c3ccc(-c4nc5ccc(C)cc5o4)c(O)c3)oc2c1 | > 100 µM (inactive) |  | > 100 µM (inactive) | > 100 µM (inactive) |  | > 100 µM (inactive) | > 100 µM (inactive) | > 100 µM (inactive) |  | > 100 µM (inactive) | > 100 µM (inactive) | > 100 µM (inactive) | > 100 µM (inactive) | > 100 µM (inactive) | > 100 µM (inactive) | > 100 µM (inactive) | > 100 µM (inactive) | > 100 µM (inactive) | > 100 µM (inactive) | > 100 µM (inactive)
9 | O=C(NCCc1ccccc1)[C@H]1CCCC[C@@H]1CCO | > 100 µM (inactive) | > 100 µM (inactive) | > 100 µM (inactive) | > 100 µM (inactive) | > 100 µM (inactive) | > 100 µM (inactive) | > 100 µM (inactive) | > 100 µM (inactive) | > 100 µM (inactive) | > 100 µM (inactive) | > 100 µM (inactive) | > 100 µM (inactive) | > 100 µM (inactive) | > 100 µM (inactive) | > 100 µM (inactive) | > 100 µM (inactive) | > 100 µM (inactive) | > 100 µM (inactive) | > 100 µM (inactive) | > 100 µM (inactive)
10 | O=C(NN=C(c1ccccc1)c1ccccc1)/C(O)=C/C(=O)c1ccc(Cl)cc1 | 16.5 µM (inactive) | 44.3 µM (inactive) | 5.5 µM (inactive) | 27.1 µM (inactive) | 27.7 µM (inactive) |  | 40.5 µM (inactive) |  | 37.3 µM (inactive) | 19.9 µM (inactive) | 39.5 µM (inactive) | 29 µM (inactive) | 37.3 µM (inactive) | 41.2 µM (inactive) | 30.2 µM (inactive) | 33 µM (inactive) | 39.2 µM (inactive) | > 100 µM (inactive) | 24.4 µM (inactive) | 26.4 µM (inactive)
11 | CC1(C)C2CC3C4CC5(Nc6ccccc6C5N41)[C@]3(C)CC2=O (some centres undefined) | > 50 µM (inactive) | > 50 µM (inactive) | > 50 µM (inactive) | > 50 µM (inactive) | > 50 µM (inactive) | > 50 µM (inactive) | > 50 µM (inactive) | > 50 µM (inactive) | > 50 µM (inactive) | > 50 µM (inactive) | > 50 µM (inactive) | > 50 µM (inactive) | > 50 µM (inactive) | > 50 µM (inactive) | 9.82 µM (inactive) | > 50 µM (inactive) | > 50 µM (inactive) |  | > 50 µM (inactive) | > 50 µM (inactive)
12 | CC1(CCC2C=CCC2)CCCNC1=S (centres undefined) | > 10 µM (inactive) | > 10 µM (inactive) | > 10 µM (inactive) | > 10 µM (inactive) | > 10 µM (inactive) | > 10 µM (inactive) | > 10 µM (inactive) | > 10 µM (inactive) | > 10 µM (inactive) |  | > 10 µM (inactive) | > 10 µM (inactive) | > 10 µM (inactive) | > 10 µM (inactive) | > 10 µM (inactive) | > 10 µM (inactive) | > 10 µM (inactive) | > 10 µM (inactive) | > 10 µM (inactive) | > 10 µM (inactive)
13 | S=c1[nH]nc(Cn2c3ccc(Br)cc3c3nc4ccccc4nc32)n1C1CCCCC1 | 20.5 µM (inactive) | 16.1 µM (inactive) | 20.2 µM (inactive) | 20.4 µM (inactive) | 21.4 µM (inactive) | 17.7 µM (inactive) | 37.5 µM (inactive) |  | 31.6 µM (inactive) |  | 16.1 µM (inactive) | 23.1 µM (inactive) | 20.7 µM (inactive) | 20.5 µM (inactive) | 19.4 µM (inactive) | 52.2 µM (inactive) | 8.13 µM (inactive) | 29.8 µM (inactive) | 25.6 µM (inactive) | 18.6 µM (inactive)
14 | COC(=O)CCCC1(CCCC(=O)OC)CCCCCCCCC(CCCC(=O)OC)(CCCC(=O)OC)C(=O)C1=O | > 100 µM (inactive) | 43.5 µM (inactive) | 88.1 µM (inactive) | 21.2 µM (inactive) | 18.4 µM (inactive) | < 0.01 µM (active) | > 100 µM (inactive) | 23 µM (inactive) | > 100 µM (inactive) | > 100 µM (inactive) | > 100 µM (inactive) | 28.9 µM (inactive) | 17.1 µM (inactive) | > 100 µM (inactive) | 30.1 µM (inactive) | 23.9 µM (inactive) | 20.4 µM (inactive) | 70.1 µM (inactive) |  | 25.2 µM (inactive)

— ChEMBL document CHEMBL1201862, “PubChem BioAssay data set” (2004)
